Structures can show the parent of a compound that is named as a salt.
Columns and labels:
Aspergillus species = test: Minimum inhibitory concentration (MIC) assay, filamentous fungi; assay type: cell-based; details: antifungal activity, lowest concentration at which 75% inhibition of growth is observed after 48 h
Description: (§1) The assays described below were used to measure the minimum inhibitory concentration (MIC) of a compound necessary to inhibit visible growth of the organism tested. These assays are adapted from NCCLS protocols M7-A4 and M27-A (NCCLS vol 17:9 and vol 17:2) as modified by Sandven, S., Clin. Micro. (1999) 37:12, p. 3856–3859. MIC values for Aspergillus species were determined using NCCLS protocol M38-P.
(§2) All compounds were dissolved in 100% DMSO to a stock concentration of 10 mM and used fresh stock compounds in powder form were kept frozen until needed and used freshly. When used for test purposes, compounds were diluted in the appropriate media depending on the organism being tested.
(§3) For yeast and aspergillus species, seven 1:2 serial dilutions of compound in appropriate media buffered with MOPS at pH 7.0 were prepared such that the final starting test compound concentrations were 44.4 μM for yeast and 50 μM aspergillus species. For bacteria, dilutions were made in growth media used for the particular bacteria being tested.
Inoculums are made by incubating Aspergillus species for 7 days at 35° C. on potato dextrose agar slants. Slants are then covered with 1.0 mL of 0.85% saline, one drop of Tween 20 is added and colonies are teased with a sterile transfer loop to create a suspension which is allowed to sit for 5 min so heavier particles can drop out. The upper suspension is separated and adjusted to an optical density of 0.09 to 0.11. The resulting suspension is diluted 1:50, which yields 2× the final inoculum needed. Micro dilution trays are prepared as with yeast and incubated for 48 h at 35° C. For our purposes the MIC is defined as the lowest compound concentration at which 75% inhibition of growth is observed after 48 h.

bacteria = test: Minimum inhibitory concentration (MIC) assay, bacteria; assay type: cell-based
Description: as §1, §2, §3
Five well-separated colonies from a 24 h Sabouraud Dextrose plate incubated at 35° C. were picked and resuspended into 2 mL of normal saline. The O.D.530 was read and the culture was adjusted to 0.5 McFarland units with normal saline. A 1:2000 dilution was made with RPMI 1640 media buffered with MOPS at pH 7.0 and 100 μL of this inoculum preparation was added to an equal volume of test compound-containing media. 25 μL of the redox indicator Alamar Blue (Biosource International) was added to each well and the plates were incubated for 48 h at 35° C. Wells having yeast growth changed color from blue to pink.
Inoculums are made in the same manner as yeast except all dilutions are made in normal saline, with a final dilution of 1:200 and an inoculum of 10 μL.

SMILES: N=C(N)NCCCNC(=O)c1ccc2[nH]c(C(=O)Nc3ccc4[nH]c(C(=O)NCCCNC(=N)N)cc4c3)cc2c1 [Compound 75, 1H-Indole-2,5-dicarboxylic acid 5-[(3-guanidino-propyl)-amide] 2-{[2-(3-guanidino-propylcarbamoyl)-1H-indol-5-yl-]-amide}]
- MIC (Aspergillus species): ≤ 50 µM
- MIC (bacteria): ≤ 45.5 µM

SMILES: C/N=C(\NC)NCCCNC(=O)c1cc2ccc(NC(=O)c3cc4cc(C(=O)NCCN/C(=N/C)NC)ccc4[nH]3)cc2[nH]1 [Compound 64]
- MIC (Aspergillus species): ≤ 50 µM
- MIC (bacteria): ≤ 45.5 µM

SMILES: N=C(N)NCCCNC(=O)c1ccc2[nH]c(C(=O)Nc3ccc4[nH]c(C(=O)NCCNC(=N)N)cc4c3)cc2c1 [Compound 58, 1H-Indole-2,5-dicarboxylic acid 2-{[2-(2-guanidinoethylcarbamoyl)-1H-indol-5-yl]amide} 5-[(3-guanidinopropyl)amide]dihydrochloride]
- MIC (Aspergillus species): ≤ 50 µM
- MIC (bacteria): ≤ 45.5 µM

SMILES: CC(=N)NCCNC(=O)c1ccc2[nH]c(C(=O)Nc3ccc4[nH]c(C(=O)NCCNC(C)=N)cc4c3)cc2c1 [Compound 89]
- MIC (Aspergillus species): ≤ 50 µM
- MIC (bacteria): ≤ 45.5 µM

SMILES: C/N=C(\N)NCCCNC(=O)c1ccc2[nH]c(C(=O)Nc3ccc4[nH]c(C(=O)NCCN/C(N)=N/C)cc4c3)cc2c1 [Compound 59, 1H-Indole-2,5-dicarboxylic acid 2-({2-[2-(N′methylguanidino)ethylcarbamoyl]-1H-indol-5-yl}amide) 5-{[3-(N′methylguanidino)propyl]amide}hydrochloride]
- MIC (Aspergillus species): ≤ 50 µM
- MIC (bacteria): ≤ 45.5 µM

SMILES: N=C(N)NCc1cccc(CNC(=O)c2cc3cc(NC(=O)c4ccc5[nH]c(C(=O)NCc6cccc(CNC(=N)N)c6)cc5c4)ccc3[nH]2)c1 [Compound 25, 1H-Indole-2,5-dicarboxylic acid 2-(3-guanidinomethyl-benzylamide) 5-{[2-(3-guanidinomethyl-benzylcarbamoyl)-1H-indol-5-yl]-amide}]
- MIC (Aspergillus species): ≤ 50 µM
- MIC (bacteria): ≤ 45.5 µM

SMILES: CN/C(=N\CCO)NCCNC(=O)c1ccc2[nH]c(C(=O)Nc3ccc4[nH]c(C(=O)NCCN/C(=N/CCO)NC)cc4c3)cc2c1 [Compound 92, 1H-Indole-2,5-dicarboxylic acid 2-({2-[N′-(2-hydroxyethyl)-N″-methylguanidino]ethyl}amide) 5-({2-(2-[N′-(2-hydroxyethyl)-N″-methylguanidino]ethylcarbamoyl)-1H-indol-5-yl}amide]dihydrochloride]
- MIC (Aspergillus species): ≤ 50 µM
- MIC (bacteria): ≤ 45.5 µM

SMILES: N=C(N)NCc1ccc(CNC(=O)c2cc3cc(NC(=O)c4ccc5[nH]c(C(=O)NCc6ccc(CNC(=N)N)cc6)cc5c4)ccc3[nH]2)cc1 [Compound 22, 1H-Indole-2,5-dicarboxylic acid 2-(4-guanidinomethyl-benzylamide) 5-{[2-(4-guanidinomethyl-benzylcarbamoyl)-1H-indol-5-yl]-amide}]
- MIC (Aspergillus species): ≤ 50 µM
- MIC (bacteria): ≤ 45.5 µM

SMILES: N=C(N)NCCCCCNC(=O)c1cc2cc(NC(=O)c3ccc4[nH]c(C(=O)NCCCCCNC(=N)N)cc4c3)ccc2[nH]1 [Compound 20, 1H-Indole-2,5-dicarboxylic acid 2-[(5-guanidino-pentyl)-amide] 5-{[2-(5-guanidino-pentylcarbanzoyl)-1H-indol-5-yl]-amide}]
- MIC (Aspergillus species): ≤ 50 µM
- MIC (bacteria): ≤ 45.5 µM

SMILES: C/N=C(\N)NCCCNC(=O)c1cc2cc(NC(=O)c3cc4cc(C(=O)NCCNC(=N)NC)ccc4[nH]3)ccc2[nH]1 [Compound 68, 1H-Indole-2,5-dicarboxylic acid 5-{[2-(N′-methyl-guanidino)-ethyl]-amide} 2-({2-[3-(N′-methyl-guanidino)-propylcarbamoyl]-1H-indol-5-yl}-amide)]
- MIC (Aspergillus species): ≤ 50 µM
- MIC (bacteria): ≤ 45.5 µM

SMILES: N=C(N)CCCNC(=O)c1cc2ccc(NC(=O)c3cc4cc(C(=O)NCCNC(=N)N)ccc4[nH]3)cc2[nH]1 [Compound 181, 1H-Indole-2,5-dicarboxylic acid 2-{[2-(3-carbamimidoylpropylcarbamoyl)-1H-indol-6-yl]amide} 5-[(2-guanidinoethyl)amide]]
- MIC (Aspergillus species): ≤ 50 µM
- MIC (bacteria): ≤ 45.5 µM

SMILES: N=C(N)NCCNC(=O)c1ccc2[nH]c(C(=O)Nc3ccc4[nH]c(C(=O)NCCNC(=N)N)cc4c3)cc2c1 [Compound 82, 1H-Indole-2,5-dicarboxylic acid 5-[(2-guanidino-ethyl)-amide] 2-{[2-(2-guanidino-ethylcarbamoyl)-1H-indol-5-yl]-amide}]
- MIC (Aspergillus species): ≤ 50 µM
- MIC (bacteria): ≤ 45.5 µM

SMILES: CNC(=N)NCCNC(=O)c1ccc2[nH]c(C(=O)Nc3ccc4cc(C(=O)NCCNC(=N)NC)[nH]c4c3)cc2c1 [Compound 48, 1H-Indole-2,5-dicarboxylic acid 5-{[2-(N′-methyl-guanidino)-ethyl]-amide} 2-({2-[2-(N′methyl-guanidino)-ethylcarbamoyl]-1H-indol-6-yl}-amide)]
- MIC (Aspergillus species): ≤ 50 µM
- MIC (bacteria): ≤ 45.5 µM

SMILES: C/N=C(\NC)NCCCNC(=O)c1ccc2[nH]c(C(=O)Nc3ccc4[nH]c(C(=O)NCCN/C(=N/C)NC)cc4c3)cc2c1 [Compound 60, 1H-Indole-2,5-dicarboxylic acid 2-({2-[2-(N′,N″-dimethylguanidino)ethylcarbamoyl]-1H-indol-5-yl}amide) 5-{[3-(N′,N″-dimethylguanidino)propyl]amide}hydrochloride]
- MIC (Aspergillus species): ≤ 50 µM
- MIC (bacteria): ≤ 45.5 µM

SMILES: N=C(N)NCC(O)CNC(=O)c1cc2cc(NC(=O)c3ccc4[nH]c(C(=O)NCC(O)CNC(=N)N)cc4c3)ccc2[nH]1 (centres unmarked) [Compound 19, 1H-Indole-2,5-dicarboxylic acid 2-[(3-guanidino-2-hydroxy-propyl)-amide] 5-{[2-(3-guanidino-2-hydroxy-propylcarbamoyl)-1H-indol-5-yl]-amide}]
- MIC (Aspergillus species): ≤ 50 µM
- MIC (bacteria): ≤ 45.5 µM

SMILES: N=C(N)NCCCNC(=O)c1ccc2[nH]c(C(=O)Nc3ccc4cc(C(=O)NCCCNC(=N)N)[nH]c4c3)cc2c1 [Compound 72, 1H-Indole-2,5-dicarboxylic acid 5-[(3-guanidino-propyl)-amide] 2-{[2-(3-guanidino-propylcarbamoyl)-1H-indol-6-yl-]-amide}]
- MIC (Aspergillus species): ≤ 50 µM
- MIC (bacteria): ≤ 45.5 µM

SMILES: CNC(=N)NCCNC(=O)c1ccc2[nH]c(C(=O)Nc3cc(C(=O)NCCNC(=N)NC)n(CC(C)C)c3)cc2c1 [Compound 81, 1H-Indole-2,5-dicarboxylic acid 2-({1−isobutyl-5-[2-(N′-methyl-guanidino)-ethylcarbamoyl]-1H-pyrrol-3-yl}amide) 5-{[2-(N′-methyl-guanidino)-ethyl]-amide}]
- MIC (Aspergillus species): ≤ 50 µM
- MIC (bacteria): ≤ 45.5 µM

SMILES: C/N=C(\NC)NCCCNC(=O)c1ccc2[nH]c(C(=O)Nc3ccc4cc(C(=O)NCCCN/C(=N/C)NC)[nH]c4c3)cc2c1 [Compound 74, 1H-Indole-2,5-dicarboxylic acid 5-[(3-(N N′,N″-dimethyl-guanidino)-propyl)-amide] 2-{[2-(3-(N′,N″-dimethyl-guanidino)-propylcarbamoyl)-1H-indol-6-yl-]-amide}]
- MIC (Aspergillus species): ≤ 50 µM
- MIC (bacteria): ≤ 45.5 µM

SMILES: N=C(N)CCNC(=O)c1cc(NC(=O)c2ccc(C(=O)NCCNC(=N)N)cc2)cn1CC1CC1 [Compound 100, N-[5-(2-Carbamimidoyl-ethylcarbamoyl)-1-cyclopropylmethyl-1H-pyrrol-3-yl]-N′-(2-guanidino-ethyl)-terephthalamide]
- MIC (Aspergillus species): ≤ 50 µM
- MIC (bacteria): ≤ 45.5 µM

Source: patent US7141680B2, “Aromatic compounds possessing antifungal or antibacterial activity” (Genelabs Technologies, Inc., priority 2002, dated 2006)
